In patent US20260138976A1 (Hoffmann-La Roche Inc., priority 2022, published 2026):

Columns and labels:
[1] = target: T1, DGKζ (hDGKzeta(1-928)-N-His) (Homo sapiens, UniProt Q13574); assay: In vitro DGK inhibition assay, DGKzeta ADP Glo (in house); type: biochemical; details: 2 nM DGKζ, 50 μM ATP, 125 uM DLG in liposomes, 1 hour reaction
T1 construct: hDGKzeta(1-928)-N-His; His (N); made in house; host or cells: Sf21 insect cells (baculovirus)
Method in brief: (§1)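 Full-length His-tagged human DGKα (4 nM) or DGKζ (2 nM), expressed in Sf21 cells, phosphorylated 125 µM DLG in PS/PC liposomes with ATP at 25 µM (α) or 50 µM (ζ) for 1 h. ADP was measured by ADP-Glo luminescence. Compounds were tested as 11-point 1:3 series in 2% DMSO.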

[2] = test system: primary human T-cells; assay: Proliferation assay (5 days, CellTiter-Glo, CD3-stimulated T-cells); type: cell-based; details: for Emax proliferation (% activation): CD3 condition, normalised to DMSO (neutral) and 20 μM reference compound A1 = 100%; for EC50: Homo sapiens, T-cell, 120 h, CD3-stimulated primary human T-cells, 5 days, CellTiter-Glo, fitted sigmoidal curve, read-out: Tcell Proliferation CD3 EC50
Method in brief: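 Expanded primary human T-cells, 100 k cells/well, were stimulated with plate-coated CD3 antibody (donor-titrated) and given compound in a 5 or 6 pt dose response from 20 μM or 10 μM final top, 0.2% DMSO final. ATP was read by CellTiter-Glo after 5 days. EC50 and Emax were reported as % of 20 μM reference compound A1.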

[3] = target: T2, DGKα (hDGKalpha(1-735)-N-His) (Homo sapiens, UniProt P23743); assay: In vitro DGK inhibition assay, DGKalpha ADP Glo (in house); type: biochemical; details: 4 nM DGKα, 25 μM ATP, 125 uM DLG in liposomes, 1 hour reaction
T2 construct: hDGKalpha(1-735)-N-His; His (N); made in house; host or cells: Sf21 insect cells (baculovirus)
T2 sequence (P23743 whole entry): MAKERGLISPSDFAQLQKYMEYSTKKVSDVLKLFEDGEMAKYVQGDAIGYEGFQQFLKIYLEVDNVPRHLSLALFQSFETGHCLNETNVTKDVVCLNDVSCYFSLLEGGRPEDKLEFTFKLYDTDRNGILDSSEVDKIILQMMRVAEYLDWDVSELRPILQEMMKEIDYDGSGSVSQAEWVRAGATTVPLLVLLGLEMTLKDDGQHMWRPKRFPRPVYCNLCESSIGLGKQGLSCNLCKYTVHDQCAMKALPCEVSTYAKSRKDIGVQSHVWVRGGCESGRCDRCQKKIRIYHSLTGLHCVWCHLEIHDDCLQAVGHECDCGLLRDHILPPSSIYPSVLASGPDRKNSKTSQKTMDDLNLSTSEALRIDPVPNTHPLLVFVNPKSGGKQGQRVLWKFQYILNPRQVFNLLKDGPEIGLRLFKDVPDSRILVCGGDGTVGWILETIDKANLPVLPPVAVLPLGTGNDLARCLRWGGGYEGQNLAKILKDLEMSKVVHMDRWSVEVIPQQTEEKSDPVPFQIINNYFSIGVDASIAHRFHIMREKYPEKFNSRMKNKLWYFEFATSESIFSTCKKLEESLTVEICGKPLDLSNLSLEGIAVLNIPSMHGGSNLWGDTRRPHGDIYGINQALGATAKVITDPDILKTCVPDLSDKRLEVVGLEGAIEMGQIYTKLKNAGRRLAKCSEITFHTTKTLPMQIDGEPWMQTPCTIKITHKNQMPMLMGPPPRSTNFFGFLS
Method in brief: as §1

T1 sequence (Q13574 whole entry): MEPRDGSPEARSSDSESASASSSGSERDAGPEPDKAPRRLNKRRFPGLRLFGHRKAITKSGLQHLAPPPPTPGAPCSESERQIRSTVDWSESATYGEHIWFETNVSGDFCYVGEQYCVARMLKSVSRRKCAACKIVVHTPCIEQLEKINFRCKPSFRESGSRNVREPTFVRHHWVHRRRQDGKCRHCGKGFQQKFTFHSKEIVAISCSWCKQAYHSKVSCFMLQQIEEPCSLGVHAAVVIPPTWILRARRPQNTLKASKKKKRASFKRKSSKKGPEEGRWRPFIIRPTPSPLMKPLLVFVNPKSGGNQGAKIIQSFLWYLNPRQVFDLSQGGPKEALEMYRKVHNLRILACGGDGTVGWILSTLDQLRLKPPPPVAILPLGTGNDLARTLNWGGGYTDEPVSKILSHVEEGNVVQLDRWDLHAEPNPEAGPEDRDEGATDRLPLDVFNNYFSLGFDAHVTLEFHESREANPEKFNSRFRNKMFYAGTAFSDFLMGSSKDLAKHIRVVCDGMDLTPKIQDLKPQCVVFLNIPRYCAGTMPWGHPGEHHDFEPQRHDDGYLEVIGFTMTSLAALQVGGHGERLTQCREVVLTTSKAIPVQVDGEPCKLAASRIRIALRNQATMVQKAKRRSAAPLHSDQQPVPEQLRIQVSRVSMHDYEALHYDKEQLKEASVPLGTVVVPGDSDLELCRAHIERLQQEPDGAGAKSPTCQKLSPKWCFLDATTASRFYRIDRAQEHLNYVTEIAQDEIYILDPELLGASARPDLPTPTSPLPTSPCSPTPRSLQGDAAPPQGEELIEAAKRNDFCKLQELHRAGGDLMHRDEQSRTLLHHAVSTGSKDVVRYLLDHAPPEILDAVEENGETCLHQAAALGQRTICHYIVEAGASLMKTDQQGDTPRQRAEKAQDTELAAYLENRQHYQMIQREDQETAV

For `CC(C)(C#N)c1nnc(-c2ccc3c(c2)N(Cc2ccc(-c4ccc(OC(F)F)cn4)cc2)C(=O)[C@@H](N)CS3(=O)=O)o1` [Example 108, 2-[5-[(3R)-3-amino-5-[[4-[5-(difluoromethoxy)-2-pyridyl]phenyl]methyl]-1,1,4-trioxo-2,3-dihydro-1λ^6,5-benzothiazepin-7-yl]-1,3,4-oxadiazol-2-yl]-2-methyl-propanenitrile], the IC50 [1] was 939 nM, the “Emax proliferation (% activation)” value [2] was 204 % activation and the EC50 [2] was 820 nM. The IC50 [3] was 1390 nM.
With `CC(F)(F)c1ccc(-c2ccc(CN3C(=O)[C@@H](N)CS(=O)(=O)c4ccc(-c5nnc(C(C)(C)C#N)o5)cc43)cc2)nc1` [Example 109, 2-[5-[(3R)-3-amino-5-[[4-[5-(1,1-difluoroethyl)-2-pyridyl]phenyl]methyl]-1,1,4-trioxo-2,3-dihydro-1λ^6,5-benzothiazepin-7-yl]-1,3,4-oxadiazol-2-yl]-2-methyl-propanenitrile] the IC50 [1] was 864 nM, the “Emax proliferation (% activation)” value [2] was 129 % activation and the EC50 [2] was 445 nM. For the same molecule, the IC50 [3] was 2110 nM.
For `CC(C)(C#N)c1nnc(-c2ccc3c(c2)N(Cc2ccc(-c4cc(OC(F)F)ccn4)cc2)C(=O)[C@@H](N)CS3(=O)=O)o1` [Example 110, 2-[5-[(3R)-3-amino-5-[[4-[4-(difluoromethoxy)-2-pyridyl]phenyl]methyl]-1,1,4-trioxo-2,3-dihydro-1λ^6,5-benzothiazepin-7-yl]-1,3,4-oxadiazol-2-yl]-2-methyl-propanenitrile], the IC50 [1] was 507 nM, the “Emax proliferation (% activation)” value [2] was 85 % activation and the EC50 [2] was 5780 nM. The IC50 [3] was > 60000 nM.
For `CC(C)(C#N)c1nnc(-c2ccc3c(c2)N(Cc2ccc(-c4ccnc(C(F)(F)F)c4)cc2)C(=O)[C@@H](N)CS3(=O)=O)o1` [Example 111, 2-[5-[(3R)-3-amino-1,1,4-trioxo-5-[[4-[2-(trifluoromethyl)-4-pyridyl]phenyl]methyl]-2,3-dihydro-1λ^6,5-benzothiazepin-7-yl]-1,3,4-oxadiazol-2-yl]-2-methyl-propanenitrile], the IC50 [1] was 1130 nM, the “Emax proliferation (% activation)” value [2] was 117 % activation and the EC50 [2] was 926 nM. For the same molecule, the IC50 [3] was > 62500 nM.
`CC(C)(C#N)c1nnc(-c2ccc3c(c2)N(Cc2ccc(-c4cnc(OC(F)(F)F)cn4)cc2)C(=O)[C@@H](N)CS3(=O)=O)o1` [Example 112] was tested, and the IC50 [1] was 473 nM, the “Emax proliferation (% activation)” value [2] was 116 % activation and the EC50 [2] was 292 nM. For the same molecule, the IC50 [3] was 1750 nM.
`CC(C)(C#N)c1nnc(-c2ccc3c(c2)N(Cc2ccc(-c4ccc(C(F)(F)F)nc4)cc2)C(=O)[C@@H](N)CS3(=O)=O)o1` [Example 113, 2-[5-[(3R)-3-amino-1,1,4-trioxo-5-[[4-[6-(trifluoromethyl)-3-pyridyl]phenyl]methyl]-2,3-dihydro-1λ^6,5-benzothiazepin-7-yl]-1,3,4-oxadiazol-2-yl]-2-methyl-propanenitrile] was tested, and the IC50 [1] was 1130 nM, the “Emax proliferation (% activation)” value [2] was 79 % activation and the EC50 [2] was 1060 nM. For the same molecule, the IC50 [3] was > 62500 nM.
With `Cc1nc(-c2ccc(CN3C(=O)[C@@H](N)CS(=O)(=O)c4ccc(-c5nnc(C(C)(C)C#N)o5)cc43)cc2)ccc1C(F)(F)F` [Example 114] the IC50 [1] was 3720 nM, the “Emax proliferation (% activation)” value [2] was 78 % activation and the EC50 [2] was 7420 nM. The IC50 [3] was > 60000 nM.
With `CC(C)(C#N)c1nnc(-c2ccc3c(c2)N(Cc2ccc(-c4cnn(C(F)(F)F)c4)cc2)C(=O)[C@@H](N)CS3(=O)=O)o1` [Example 115, 2-[5-[(3R)-3-amino-1,1,4-trioxo-5-[[4-[1-(trifluoromethyl)pyrazol-4-yl]phenyl]methyl]-2,3-dihydro-1λ^6,5-benzothiazepin-7-yl]-1,3,4-oxadiazol-2-yl]-2-methyl-propanenitrile] the IC50 [1] was 803 nM, the “Emax proliferation (% activation)” value [2] was 140 % activation and the EC50 [2] was 278 nM. It also gave an IC50 [3] of 585 nM.
For `CC(C)(C#N)c1nnc(-c2ccc3c(c2)N(Cc2ccc(-c4cc(C(F)(F)F)ccn4)cc2)C(=O)[C@@H](N)CS3(=O)=O)o1` [Example 116, 2-[5-[(3R)-3-amino-1,1,4-trioxo-5-[[4-[4-(trifluoromethyl)-2-pyridyl]phenyl]methyl]-2,3-dihydro-1λ^6,5-benzothiazepin-7-yl]-1,3,4-oxadiazol-2-yl]-2-methyl-propanenitrile], the IC50 [1] was 918 nM, the “Emax proliferation (% activation)” value [2] was 97 % activation and the EC50 [2] was 439 nM. The IC50 [3] was > 62500 nM.
For `CC(C)(C#N)c1nnc(-c2ccc3c(c2)N(Cc2ccc(-c4ncc(OC(F)(F)F)cn4)cc2)C(=O)[C@@H](N)CS3(=O)=O)o1` [Example 117], the IC50 [1] was 1010 nM, the “Emax proliferation (% activation)” value [2] was 136 % activation and the EC50 [2] was 174 nM. The IC50 [3] was 1140 nM.
In the case of `CC(C)(C#N)c1nnc(-c2ccc3c(c2)N(Cc2ccc(-c4ccc(C5CC5)cn4)cc2)C(=O)[C@@H](N)CS3(=O)=O)o1` [Example 118, 2-[5-[(3R)-3-amino-5-[[4-(5-cyclopropyl-2-pyridyl)phenyl]methyl]-1,1,4-trioxo-2,3-dihydro-1λ^6,5-benzothiazepin-7-yl]-1,3,4-oxadiazol-2-yl]-2-methyl-propanenitrile], the IC50 [1] is reported as 814 nM, the “Emax proliferation (% activation)” value [2] is reported as 144 % activation and the EC50 [2] is reported as 1570 nM. For the same molecule, the IC50 [3] was 16400 nM.
For `CC(C)(C#N)c1nnc(-c2ccc3c(c2)N(Cc2ccc(-c4ccc(OC(F)(F)F)cc4)nc2)C(=O)[C@@H](N)CS3(=O)=O)o1` [Example 119, 2-[5-[(3R)-3-amino-1,1,4-trioxo-5-[[6-[4-(trifluoromethoxy)phenyl]-3-pyridyl]methyl]-2,3-dihydro-1λ^6,5-benzothiazepin-7-yl]-1,3,4-oxadiazol-2-yl]-2-methyl-propanenitrile], the IC50 [1] was 1630 nM, the “Emax proliferation (% activation)” value [2] was 119 % activation and the EC50 [2] was 809 nM. For the same molecule, the IC50 [3] was 3450 nM.
For `CC(C)(C#N)c1nnc(-c2ccc3c(c2)N(Cc2ccc(-n4nnc(C(F)(F)F)n4)cc2)C(=O)[C@@H](N)CS3(=O)=O)o1` [Example 120, 2-[5-[(3R)-3-amino-1,1,4-trioxo-5-[[4-[5-(trifluoromethyl)tetrazol-2-yl]phenyl]methyl]-2,3-dihydro-1λ^6,5-benzothiazepin-7-yl]-1,3,4-oxadiazol-2-yl]-2-methyl-propanenitrile], the IC50 [1] was 2020 nM, the “Emax proliferation (% activation)” value [2] was 205 % activation and the EC50 [2] was 1520 nM. It also gave an IC50 [3] of 13500 nM.
For `CC(C)(C#N)c1nnc(-c2ccc3c(c2)N(Cc2ccc(-c4nc(C(F)(F)F)co4)cc2)C(=O)[C@@H](N)CS3(=O)=O)o1` [Example 123, 2-[5-[(3R)-3-amino-1,1,4-trioxo-5-[[4-[4-(trifluoromethyl)oxazol-2-yl]phenyl]methyl]-2,3-dihydro-1λ^6,5-benzothiazepin-7-yl]-1,3,4-oxadiazol-2-yl]-2-methyl-propanenitrile], the IC50 [1] was 893 nM, the “Emax proliferation (% activation)” value [2] was 103 % activation and the EC50 [2] was 860 nM. For the same molecule, the IC50 [3] was 1860 nM.
`COc1ccc(-c2ccc(CN3C(=O)[C@@H](N)CS(=O)(=O)c4ccc(-c5nnc(C(C)(C)C#N)o5)cc43)cc2)nc1` [Example 125] was tested, and the IC50 [1] was 930 nM, the “Emax proliferation (% activation)” value [2] was 127 % activation and the EC50 [2] was 2310 nM. For the same molecule, the IC50 [3] was 3520 nM.
